Results on two compounds are retold here after patent US20100311691A1, “COMPOSITIONS OF S-ALKYLISOTHIOURONIUM DERIVATIVES FOR TREATING UPPER RESPIRATORY CONGESTION” (priority 2007, published 2010).

One series concerns nasal congestion. Particulars: unpublished studies; cited from earlier work.
Series [1] deals with nasal congestion, rhino-sinusitis. Nature of the series: Example 4: case report Patient A (rhino-sinusitis), nasal drops. The class given is in vivo. The following applies: for repeated administrations needed: nasal drops. The protocol: Patient A was admitted with a diagnosis of rhino-sinusitis. […] Clinical examination indicated hyperemia of the nasal mucosa, rhinorrhea, nasal obstruction with narrowing of the lower and medium nasal cornets. The patient was treated with, antibacterial medication, and the sinuses were drained by the introduction of antiseptics. In addition, 2-3 nasal drops of S-ethylisothiouronium diethylphosphate 1% were administered. The patient was treated during 3 days. As a result of the treatment with S-ethylisothiouronium diethylphosphate, an amelioration of the clinical symptoms was achieved 1-2 days earlier than that achieved by the treatment with S-ethylisothiouronium bromide (designated Olysin). Also, the repeated administration of S-ethylisothiouronium diethylphosphate was reduced to 2-3 times per day, and not 4-5 times as was necessary when administering Olysin.

Series [2] concerns nasal congestion, rhinitis and acute sinusitis. Nature of the series: Example 4: case report Patient B (rhinitis and acute sinusitis), nasal drops. The class given is in vivo. The protocol: Patient B was admitted with a diagnosis of rhinitis and acute sinusitis. The patient complained of headaches, dizziness, and common cold. […] The radiological examination confirmed acute sinusitis. The patient was treated by puncture of the sinuses with the introduction of antiseptics, Cefazoline 1.0 administered intramuscularly 2 times per day, Loratidin tablets 10 mg and, locally, nasal drops of S-ethylisothiouronium diethylphosphate 2% were used 3-4 times per day. The treatment with S-ethylisothiouronium diethylphosphate led to an amelioration of the clinical symptoms and hyperemia of the nasal mucosa 1-2 days earlier than that obtained by the treatment with Olysin.

In series [3] the test system is upper respiratory tract and oral pharyngeal congestion. The series is described as follows: Summary comparison of diethylphosphate and bromide in upper respiratory tract and oral pharyngeal congestion. Format: in vivo, subjects. The following applies: summary statement.

For the compound `Br.CCSC(=N)N` [Olysin, S-ethylisothiouronium bromide], in the series with nasal congestion, the nasal decongestion entry was “moderate and short-term nasal decongestions”; the side effects result is “harmful side effects”. Further, the repeated administrations needed in series [1] was 4-5 times per day.

Turning to S-ethylisothiouronium diethylphosphate, the “adverse effects / tachyphylaxis” value in series [1] (1% nasal drops) is reported as “No adverse effects or tachyphylaxis”. For the same compound, in series [1] (2-3 nasal drops of 1%, treated during 3 days, with antibacterial medication and sinus drainage), the “amelioration of clinical symptoms earlier than with S-ethylisothiouronium bromide (Olysin)” value is 1 to 2 days. The repeated administrations needed in series [1] is reported as 2-3 times per day. The adverse effects entry in series [2] (2% nasal drops) was “No adverse effects”. The “amelioration of clinical symptoms and hyperemia of the nasal mucosa earlier than with Olysin” value in series [2] (2% nasal drops 3-4 times per day, with Cefazoline, Loratidin, antiseptics) was 1 to 2 days. In series [3], the “efficiency in alleviating congestion and symptoms, relative to S-ethylisothiouronium bromide” value was “more efficient than S-ethylisothiouronium bromide”; the side effects result was “little or no side effects”.
